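1) Cells in 96-well plates. 2) Compound, 48 h, 5 concentrations. 3) Linear interpolation between surrounding doses. 4) Unreached endpoint = highest concentration. The concentration for 50% growth inhibition is given as GI50.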 Active and inactive are the calls of the source. Cut-off read from the data, not from the text of the source: active = GI50 up to about 1.1 µM and inactive = higher.
Assays:
Experiment in all cases: NCI-60 cell line screen, 48 h
[1] = system: ACHN
[2] = system: KM12
[3] = system: Malme-3M
[4] = system: HOP-92
[5] = system: SK-MEL-2
[6] = system: COLO 205
[7] = system: RPMI-8226
[8] = system: XF498
[9] = system: SNB-75
[10] = system: UACC-62
[11] = system: DMS-273
[12] = system: MOLT-4
[13] = system: LOX IMVI
[14] = system: SF-295
[15] = system: SK-MEL-28
[16] = system: CCRF-CEM
[17] = system: SF-268
[18] = system: EKVX
[19] = system: RXF 393
[20] = system: SN12C
[21] = system: HOP-62
[22] = system: A549
[23] = system: HT-29
[24] = system: DMS-114
[25] = system: HCC 2998
[26] = system: A498
[27] = system: K562
[28] = system: HL-60
[29] = system: OVCAR-5
[30] = system: NCI-H460
[31] = system: LXFL 529
[32] = system: HCT-116
[33] = system: OVCAR-8
[34] = system: IGROV-1
[35] = system: NCI-H226
[36] = system: UO-31
[37] = system: NCI-H23
[38] = system: TK-10
[39] = system: U-251
[40] = system: OVCAR-4
[41] = system: CAKI-1
[42] = system: 786-0
[43] = system: M19-MEL
[44] = system: SW-620
[45] = system: SNB-19
[46] = system: M14
[47] = system: RXF 631
[48] = system: OVCAR-3
[49] = system: DLD-1
[50] = system: UACC-257
[51] = system: HOP-18
[52] = system: SK-OV-3
[53] = system: SF-539
[54] = system: HCT-15
[55] = system: SK-MEL-5
[56] = system: SNB-78
[57] = system: KM-20L2
[58] = system: SR
[59] = system: NCI-H522

Measured: GI50

CCOC(=O)C(=O)C1C(=O)Nc2ccccc21 (configuration not stated)
inactive: [1] > 100 µM | [2] > 100 µM | [3] > 100 µM | [4] 50.8 µM | [5] > 100 µM | [6] > 100 µM | [7] > 100 µM | [8] > 100 µM | [9] > 100 µM | [10] > 100 µM | [11] > 100 µM | [12] > 100 µM | [13] > 100 µM | [14] > 100 µM | [15] > 100 µM | [16] > 100 µM | [17] > 100 µM | [18] > 100 µM | [19] > 100 µM | [20] > 100 µM | [21] > 100 µM | [22] > 100 µM | [23] > 100 µM | [24] > 100 µM | [25] > 100 µM | [26] > 100 µM | [27] > 100 µM | [28] > 100 µM | [29] > 100 µM | [30] > 100 µM | [31] > 100 µM | [32] > 100 µM | [33] > 100 µM | [34] > 100 µM | [35] > 100 µM | [36] > 100 µM | [37] > 100 µM | [38] > 100 µM | [39] > 100 µM | [40] > 100 µM | [41] > 100 µM | [42] > 100 µM | [43] > 100 µM | [44] > 100 µM | [45] > 100 µM | [46] > 100 µM | [47] > 100 µM | [48] > 100 µM | [49] > 100 µM | [50] > 100 µM

CCOC(OC1=C(C#N)CCC1)C(CC)[Se]c1ccccc1 (configuration not stated)
25.6 µM: [54]
inactive: [1] 29.8 µM | [2] 64.4 µM | [51] 27.2 µM | [3] 11.4 µM | [52] > 100 µM | [4] 23.4 µM | [5] 20.9 µM | [6] 19.5 µM | [7] 17.9 µM | [8] 24.9 µM | [53] 19 µM | [9] 24.2 µM | [10] 19 µM | [11] 11.2 µM | [12] 16.8 µM | [13] 4.5 µM | [14] 16.6 µM | [15] 40.9 µM | [16] 15.6 µM | [17] 18.8 µM | [18] 35.7 µM | [19] 20.9 µM | [20] 14.3 µM | [21] > 100 µM | [22] 63.1 µM | [23] 26.4 µM | [55] 15 µM | [24] 3.1 µM | [25] 13.6 µM | [26] 80.4 µM | [27] 32.7 µM | [28] 12.4 µM | [29] 22.7 µM | [30] 36.4 µM | [31] 16.5 µM | [56] 29.3 µM | [32] 26.2 µM | [33] 23.7 µM | [34] 24.9 µM | [35] 19.2 µM | [57] 26.1 µM | [36] 24.2 µM | [58] 7.19 µM | [37] 9.98 µM | [38] > 100 µM | [39] 10.3 µM | [40] 16.1 µM | [41] 41 µM | [42] 15 µM | [43] 13.9 µM | [59] 13.8 µM | [45] 48.1 µM | [46] 15.2 µM | [48] 22.1 µM | [49] 19.6 µM | [50] 80.9 µM

CCOC(=O)c1nc2ccc(OC)cc2c2c1Cc1ccccc1-2
> 100 µM: [54]
inactive: [1] > 100 µM | [2] > 100 µM | [3] > 100 µM | [5] > 100 µM | [6] > 100 µM | [7] > 100 µM | [53] 84.9 µM | [9] 81.5 µM | [10] 90.2 µM | [11] > 100 µM | [12] > 100 µM | [13] > 100 µM | [14] > 100 µM | [15] > 100 µM | [17] > 100 µM | [19] 16.2 µM | [20] > 100 µM | [21] > 100 µM | [22] > 100 µM | [23] > 100 µM | [55] 42.8 µM | [24] 23.9 µM | [25] 87.1 µM | [27] > 100 µM | [29] > 100 µM | [30] > 100 µM | [31] > 100 µM | [56] > 100 µM | [32] 8.95 µM | [33] > 100 µM | [34] > 100 µM | [35] > 100 µM | [57] > 100 µM | [36] > 100 µM | [58] > 100 µM | [37] > 100 µM | [38] > 100 µM | [39] > 100 µM | [40] 49.8 µM | [41] > 100 µM | [43] > 100 µM | [59] 56.5 µM | [44] > 100 µM | [45] > 100 µM | [46] > 100 µM | [47] 61.7 µM | [48] > 100 µM | [49] > 100 µM | [50] > 100 µM

From ChEMBL document CHEMBL1201862, “PubChem BioAssay data set” (2004)
